19 molecules from patent US20240262795A1, “PYRAZINE COMPOUNDS AS INHIBITORS OF FLT3” (Biomea Fusion, Inc., priority 2021, published 2024) can be followed below.

The assay concerns the target T1, Ba/F3 cell lines stably expressing human FLT3-ITD-F691L (Homo sapiens, UniProt P36888, F691L, cells depend on it, form not given).
T1 construct: Ba/F3-FLT3-ITD-F691L Relative IC50
T1 sequence (P36888 1-993 F691L): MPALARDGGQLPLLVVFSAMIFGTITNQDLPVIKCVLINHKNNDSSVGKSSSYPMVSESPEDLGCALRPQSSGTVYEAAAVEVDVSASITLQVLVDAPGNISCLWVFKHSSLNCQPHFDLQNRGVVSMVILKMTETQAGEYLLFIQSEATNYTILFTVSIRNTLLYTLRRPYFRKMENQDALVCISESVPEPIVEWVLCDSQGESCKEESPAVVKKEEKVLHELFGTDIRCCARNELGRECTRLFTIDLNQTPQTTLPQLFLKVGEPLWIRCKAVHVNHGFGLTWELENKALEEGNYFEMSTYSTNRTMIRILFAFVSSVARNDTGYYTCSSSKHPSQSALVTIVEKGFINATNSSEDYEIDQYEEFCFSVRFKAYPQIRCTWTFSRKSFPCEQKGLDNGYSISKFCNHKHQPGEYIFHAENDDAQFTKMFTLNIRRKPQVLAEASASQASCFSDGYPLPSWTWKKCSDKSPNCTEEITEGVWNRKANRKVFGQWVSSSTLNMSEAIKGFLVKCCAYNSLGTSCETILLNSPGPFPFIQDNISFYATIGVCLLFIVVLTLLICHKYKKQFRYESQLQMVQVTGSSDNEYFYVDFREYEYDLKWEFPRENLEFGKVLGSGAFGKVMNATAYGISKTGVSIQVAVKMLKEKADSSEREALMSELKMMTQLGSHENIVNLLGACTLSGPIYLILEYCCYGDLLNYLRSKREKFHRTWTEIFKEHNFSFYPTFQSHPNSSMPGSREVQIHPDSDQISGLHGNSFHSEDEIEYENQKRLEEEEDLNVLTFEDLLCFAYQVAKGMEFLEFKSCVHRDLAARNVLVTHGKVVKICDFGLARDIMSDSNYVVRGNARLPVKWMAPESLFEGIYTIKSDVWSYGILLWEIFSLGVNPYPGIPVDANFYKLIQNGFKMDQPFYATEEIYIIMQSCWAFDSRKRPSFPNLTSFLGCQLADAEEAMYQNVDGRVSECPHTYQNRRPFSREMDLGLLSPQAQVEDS
Briefly: FLT3 mutant assay, cell viability, Ba/F3-FLT3-ITD-F691L. The assay is classed as cell-based, mouse. The following applies: IC50 (3 days), CellTiter-Glo; read-out: Ba/F3-FLT3-ITD-F691L Relative IC50. On the procedure: Activity of compounds on FLT3 activating mutations were assessed using Ba/F3 cell lines (mouse pro-B cell line) stably expressing human FLT3-ITD, FLT3-ITD-D835Y or FLT3-ITD-F691L. […] The supernatant collected were concentrated with PEG8000 and used to infect Ba/F3 cells at 1-5 MOI in serum-free media with polybrene. Infected Ba/F3 cells were selected in presence of puromycin, and surviving cells verified by sequencing and/or protein detection assay. Constitutive expression of the activating kinase transforms the Ba/F3 cells into IL-3-independent growth allowing them to be cultured in the absence of IL-3. […] For use in compound testing, cells in exponential growth phase were harvested, counted, and resuspended at the required cell density. Cell viability assays were performed in 96-well assay plates and 90 μL of cell suspension seeded per well. Serial dilutions of the test compounds and assay controls and were freshly prepared for the assay. Nine-point 3× serial dilutions were prepared in 100% DMSO (400× stock) and subsequently diluted in cell culture media to obtain 10× stocks. Ten microliters of the 10× stock serial dilutions were added to the appropriate wells (triplicate wells per condition) in the assay plate. […] Assay plates were incubated for 3 days in at 37° C. in a humidified incubator with 5% CO2.
Inhibition rate (IR) of the tested compounds was determined by the following formula: IR (%)=(1−(RLU compound−RLU blank)/(RLU control−RLU blank))*100%. The inhibitions of different dose of compound were calculated in Excel file, and the dose responses were analysed using GraphPad Prism to evaluate related parameters, such as Bottom, Top and IC50. For the IC50 analysis by GraphPad Prism, the equation below was used to fit curve: Y=Bottom+(Top−Bottom)/(1+10^((LogIC50−X)*HillSlope))
Background: ATP-based viability assays read luminescence as a measure of living cells.
For `CCc1nc(C(N)=O)c(Nc2cccc(CCNC(=O)CN(C)C(=O)/C=C/CN(C)C)c2)nc1N(C)CC` [Compound 252, (E)-3-((3-(2-(2-(4-(dimethylamino)-N-methylbut-2-enamido)acetamido)ethyl)phenyl)amino)-6-ethyl-5-(ethyl (methyl)amino) pyrazine-2-carboxamide], the GI50 is 0.001 to 0.01 µM.
On to `CCc1nc(C(N)=O)c(Nc2ccc(N3CCC(N4CCN(C)CC4)CC3)c(OC)c2)nc1NC1CCOCC1` [Gilteritinib, gilteritinib, reference compound], for which the GI50 lay within 0.01 to 0.1 µM.
To `CCc1nc(C(N)=O)c(Nc2cccc([C@@H](C)CNC(=O)CN(C)C(=O)/C=C/CN3CCC3)c2)nc1N(C)CC` [Compound 518, (R,E)-3-((3-(1-(2-(4-(azetidin-1-yl)-N-methylbut-2-enamido)acetamido)propan-2-yl)phenyl)amino)-6-ethyl-5-(ethyl(methyl)amino)pyrazine-2-carboxamide] belongs 0.001 to 0.01 µM; to `CCc1nc(C(N)=O)c(Nc2cccc(CCNC(=O)[C@H](C)N(C)C(=O)/C=C/CN(C)C)c2)nc1N(C)C(C)C` [Compound 204, (S,E)-3-((3-(2-(2-(4-(dimethylamino)-N-methylbut-2-enamido)propanamido)ethyl)phenyl)amino)-6-ethyl-5-(isopropyl(methyl)amino)pyrazine-2-carboxamide], 0.001 to 0.01 µM; to `Cc1nc(C(N)=O)c(Nc2cccc(CCNC(=O)[C@H](C)N(C)C(=O)/C=C/CN(C)C)c2)nc1N(C)C(C)C` [Compound 232, (S, E)-3-((3-(2-(2-(4-(dimethylamino)-N-methylbut-2-enamido)propanamido)ethyl)phenyl)amino)-5-(isopropyl (methyl)amino)-6-methylpyrazine-2-carboxamide], 0.001 to 0.01 µM.
Under `CCc1nc(C(N)=O)c(Nc2cccc(CCNC(=O)[C@H](C)N(C)C(=O)/C=C/CN(C)C)c2)nc1NC(C)C` [Compound 205, (S,E)-3-((3-(2-(2-(4-(dimethylamino)-N-methylbut-2-enamido)propanamido)ethyl)phenyl)amino)-6-ethyl-5-(isopropylamino)pyrazine-2-carboxamide] stands 0.001 to 0.01 µM; under `CCc1nc(C(N)=O)c(Nc2cccc([C@@H](C)CNC(=O)CN(C)C(=O)/C=C/CN3CCC3)c2)nc1C1CC1` [Compound 506, (R,E)-3-((3-(1-(2-(4-(azetidin-1-yl)-N-methylbut-2-enamido)acetamido)propan-2-yl)phenyl)amino)-5-cyclopropyl-6-ethylpyrazine-2-carboxamide], 0.001 to 0.01 µM.
For `CCc1nc(C(N)=O)c(Nc2cccc(CCNC(=O)CN(C)C(=O)/C=C/CN3CCC3)c2)nc1OC(C)C` [Compound 603, (E)-3-((3-(2-(2-(4-(azetidin-1-yl)-N-methylbut-2-enamido)acetamido)ethyl)phenyl)amino)-6-ethyl-5-isopropoxypyrazine-2-carboxamide], the GI50 lay in the range of 0.01 to 0.1 µM.
For `CCCc1nc(Nc2cccc([C@@H](C)CNC(=O)CN(C)C(=O)/C=C/CN3CCC3)c2)c(C(N)=O)nc1CC` [Compound 507, (R,E)-3-((3-(1-(2-(4-(azetidin-1-yl)-N-methylbut-2-enamido)acetamido)propan-2-yl)phenyl)amino)-6-ethyl-5-propylpyrazine-2-carboxamide], the GI50 was 0.001 to 0.01 µM.
To `CCc1nc(Nc2cccc([C@@H](C)CNC(=O)CN(C)C(=O)/C=C/CN3CCC3)c2)c(C(N)=O)nc1CC` [Compound 508, (R, E)-3-((3-(1-(2-(4-(azetidin-1-yl)-N-methylbut-2-enamido)acetamido)propan-2-yl)phenyl)amino)-5,6-diethylpyrazine-2-carboxamide] belongs 0.001 to 0.01 µM; to `CCc1nc(C(N)=O)c(Nc2ccnc(CCNC(=O)[C@H](C)N(C)C(=O)/C=C/CN(C)C)c2)nc1N(C)C(C)C` [Compound 605, (S, E)-3-((2-(2-(2-(4-(dimethylamino)-N-methylbut-2-enamido)propanamido)ethyl)pyridin-4-yl)amino)-6-ethyl-5-(isopropyl (methyl)amino) pyrazine-2-carboxamide], 0.01 to 0.1 µM; to `CCc1nc(C(N)=O)c(Nc2cccc(CCNC(=O)[C@H](C)N(C)C(=O)/C=C/CNC)c2)nc1N(C)C(C)C` [Compound 307, (S,E)-6-ethyl-5-(isopropyl(methyl)amino)-3-((3-(2-(2-(N-methyl-4-(methylamino)but-2-enamido)propanamido)ethyl)phenyl)amino)pyrazine-2-carboxamide], 0.01 to 0.1 µM.
To `CCc1nc(C(N)=O)c(Nc2cccc([C@@H](C)CNC(=O)CN(C)C(=O)/C=C/CN(C)C)c2)nc1C1CC1` [Compound 504, (R,E)-5-cyclopropyl-3-((3-(1-(2-(4-(dimethylamino)-N-methylbut-2-enamido)acetamido)propan-2-yl)phenyl)amino)-6-ethylpyrazine-2-carboxamide] belongs 0.001 to 0.01 µM.
Under `CCc1nc(C(N)=O)c(Nc2cccc(CCNC(=O)CN(C)C(=O)/C=C/CN3CCC3)c2)nc1N(C)CC` [Compound 516A, (E)-3-((3-(2-(2-(4-(azetidin-1-yl)-N-methylbut-2-enamido)acetamido)ethyl)phenyl)amino)-6-ethyl-5-(ethyl(methyl)amino) pyrazine-2-carboxamide] stands 0.001 to 0.01 µM; under `CCOc1nc(Nc2cccc(CCNC(=O)CN(C)C(=O)/C=C/CN3CCC3)c2)c(C(N)=O)nc1CC` [Compound 602, (E)-3-((3-(2-(2-(4-(azetidin-1-yl)-N-methylbut-2-enamido)acetamido)ethyl)phenyl)amino)-5-ethoxy-6-ethylpyrazine-2-carboxamide], 0.001 to 0.01 µM.
For `CCc1nc(C(N)=O)c(Nc2ccnc(CCNC(=O)[C@H](C)N(C)C(=O)/C=C/CN(C)C)c2)nc1C1CC1` [Compound 310, (S,E)-5-cyclopropyl-3-((2-(2-(2-(4-(dimethylamino)-N-methylbut-2-enamido)propanamido)ethyl)pyridin-4-yl)amino)-6-ethylpyrazine-2-carboxamide], the GI50 lay in the range of 0.01 to 0.1 µM.
To `CCc1nc(C(N)=O)c(Nc2cc(F)cc(CCNC(=O)CN(C)C(=O)/C=C/CN3CCC3)c2)nc1C1CC1` [Compound 516, (E)-3-((3-(2-(2-(4-(azetidin-1-yl)-N-methylbut-2-enamido)acetamido)ethyl)-5-fluorophenyl)amino)-5-cyclopropyl-6-ethylpyrazine-2-carboxamide] belongs 0.01 to 0.1 µM; to `Cc1nc(C(N)=O)c(Nc2cccc(CCNC(=O)CN(C)C(=O)/C=C/CN(C)C)c2)nc1N(C)C(C)C` [Compound 250, (E)-3-((3-(2-(2-(4-(dimethylamino)-N-methylbut-2-enamido)acetamido)ethyl)phenyl)amino)-5-(isopropyl(methyl)amino)-6-methylpyrazine-2-carboxamide], 0.001 to 0.01 µM; to `CCc1nc(C(N)=O)c(Nc2cccc(CCNC(=O)CN(C)C(=O)/C=C/CN(C)C)c2)nc1C1CC1` [Compound 219, (E)-5-cyclopropyl-3-((3-(2-(2-(4-(dimethylamino)-N-methylbut-2-enamido)acetamido)ethyl)phenyl)amino)-6-ethylpyrazine-2-carboxamide], 0.001 to 0.01 µM.
